Test results as given in the supplement of paper PMC11061612.

Assays:
[1] = system: OVTOKO (Ovarian Carcinoma); test: Bliss excess, mean over the matrix (fraction); higher = more synergy
In short: (§1)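 Cell lines grown in DMEM/F12 or RPMI with 10% FBS were plated in 1536-well plates and held 24 hours at 37°C, 5% CO2 before 72 hours of exposure to two-drug dose matrices, with DMSO typically at 0.2%. CellTiter-Glo 2.0 luminescence gave viability, which was converted to inhibition. Vehicle wells were set to 0 and blank wells to 1. Combination Emax is the second-highest inhibition in the matrix, and Bliss excess is the observed combination effect minus the expected EA + EB − EA·EB, where EA and EB are the single-agent effects.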

[2] = system: OCI-AML5 (Acute Myeloid Leukemia); test: as above
In short: as §1

[3] = system: AN3-CA (Endometrial Carcinoma); test: as above
In short: as §1

[4] = system: CML-T1 (Chronic Myelogenous Leukemia); test: as above
In short: as §1

[5] = system: RMG-I (Ovarian Carcinoma); test: as above
In short: as §1

[6] = system: COLO-684 (Endometrial Carcinoma); test: as above
In short: as §1

[7] = system: SNU-175 (Colorectal Carcinoma); test: as above
In short: as §1

[8] = system: EB-3 (Burkitt's Lymphoma); test: as above
In short: as §1

[9] = system: SW684 (Other Solid Carcinomas); test: as above
In short: as §1

[10] = system: HTC-C3 (Thyroid Gland Carcinoma); test: as above
In short: as §1

ES-2 (Ovarian Carcinoma) = test: as above
In short: as §1

[11] = system: OV-90 (Ovarian Carcinoma); test: as above
In short: as §1

[12] = system: JHH-1 (Hepatocellular Carcinoma); test: as above
In short: as §1

[13] = system: NKM-1 (Acute Myeloid Leukemia); test: as above
In short: as §1

CHL-1 (Melanoma) = test: as above
In short: as §1

[14] = system: PANC-02-03 (Pancreatic Carcinoma); test: as above
In short: as §1

[15] = system: SJRH30 (Rhabdomyosarcoma); test: as above
In short: as §1

[16] = system: NCI-H1155 (Non-Small Cell Lung Carcinoma); test: combination Emax (second highest fraction inhibited in the dose matrix, 72 h); higher = more inhibition; extreme values may be limits of the assay
In short: as §1

[17] = system: LAMA-84 (Chronic Myelogenous Leukemia); test: as above
In short: as §1
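Wherever Bliss excess, mean over the matrix is given: after 72 h of two-drug dosing.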

Which results are given for `CN(C)CCCOc1ccc(-c2ccc3ncc4c(c3c2)n(C2CCOCC2)c(=O)n4C)cn1` [AZD0156] + O=C(c1cc(Cc2n[nH]c(=O)c3ccccc23)ccc1F)N1CCN(C(=O)C2CC2)CC1 [Olaparib] (first compound max 3 µM, partner max 3 µM)?
Bliss excess [1]: -0.0032; Bliss excess [2]: 0.0103; Bliss excess [3]: 0.0263; Bliss excess [4]: 0.178; Bliss excess [5]: -0.0428; Bliss excess [6]: 0.0274; Bliss excess [7]: 0.105; Bliss excess [8]: 0.0234; Bliss excess [9]: -0.0388; Bliss excess [10]: -0.0502; Bliss excess (ES-2 (Ovarian Carcinoma)): 0.0327; Bliss excess [11]: 0.035; Bliss excess [12]: 0.0084; Bliss excess [13]: 0.0587; Bliss excess (CHL-1 (Melanoma)): -0.0224; Bliss excess [14]: 0.0278; Bliss excess [15]: 0.0963; combination Emax [16]: 0.452; combination Emax [17]: 0.472

`C=CCn1c(=O)c2cnc(Nc3ccc(N4CCN(C)CC4)cc3)nc2n1-c1cccc(C(C)(C)O)n1` [AZD1775] + C1CN(CCC1(C(=O)N[C@@H](CCO)C2=CC=C(C=C2)Cl)N)C3=NC=NC4=C3C=CN4 [Capivasertib] (first compound max 3 µM, partner max 3 µM) was tested. Which Bliss excess [1] did it give?
The Bliss excess was -0.0135.

And the Bliss excess [2]?
Its Bliss excess is -0.0443.

And the Bliss excess [3]?
Its Bliss excess is 0.0797.

And the Bliss excess [4]?
Its Bliss excess is -0.0178.

What about the Bliss excess [5] of the same compound?
Its Bliss excess is -0.0349.

And the Bliss excess [6]?
The Bliss excess was -0.0937.

What about the Bliss excess [7] of the same compound?
Its Bliss excess is 0.0244.

And the Bliss excess [8]?
Its Bliss excess is -0.111.

What about the Bliss excess [9] of the same compound?
The Bliss excess was -0.0351.

What about the Bliss excess [10] of the same compound?
Its Bliss excess is -0.0653.

And the Bliss excess (ES-2 (Ovarian Carcinoma))?
The Bliss excess was -0.0209.

What about the Bliss excess [11] of the same compound?
The Bliss excess was -0.0235.

What about the Bliss excess [12] of the same compound?
Its Bliss excess is -0.018.

And the Bliss excess [13]?
The Bliss excess was -0.0746.

And the Bliss excess (CHL-1 (Melanoma))?
Its Bliss excess is 0.0106.

What about the Bliss excess [14] of the same compound?
Its Bliss excess is -0.018.

And the Bliss excess [15]?
Its Bliss excess is -0.0065.

What about the “combination Emax” value [16] of the same compound?
The value was 0.831.

And the “combination Emax” value [17]?
Its value is 0.939.

What does the source list for `COc1nnc2ccc(N3CCC(c4ccc(OCCN5CCN(C)C(=O)[C@H]5C)cc4)CC3)nn12` [AZD5153] + C=CCn1c(=O)c2cnc(Nc3ccc(N4CCN(C)CC4)cc3)nc2n1-c1cccc(C(C)(C)O)n1 [AZD1775] (first compound max 1 µM, partner max 1 µM)?
Bliss excess [1]: 0.0095; Bliss excess [2]: -0.0106; Bliss excess [3]: -0.0624; Bliss excess [4]: -0.116; Bliss excess [5]: -0.0187; Bliss excess [6]: -0.0852; Bliss excess [7]: -0.0647; Bliss excess [8]: -0.114; Bliss excess [9]: -0.054; Bliss excess [10]: -0.033; Bliss excess (ES-2 (Ovarian Carcinoma)): -0.0435; Bliss excess [11]: -0.0367; Bliss excess [12]: 0.0173; Bliss excess [13]: -0.124; Bliss excess (CHL-1 (Melanoma)): -0.0434; Bliss excess [14]: -0.0823; Bliss excess [15]: -0.019; combination Emax [16]: 0.814; combination Emax [17]: 0.978

How did the Bliss excess [1] turn out when `COc1nnc2ccc(N3CCC(c4ccc(OCCN5CCN(C)C(=O)[C@H]5C)cc4)CC3)nn12` [AZD5153] + CC1(C)CCC(CN2CCN(c3ccc(C(=O)NS(=O)(=O)c4ccc(NCC5CCOCC5)c([N+](=O)[O-])c4)c(Oc4cnc5[nH]ccc5c4)c3)CC2)=C(c2ccc(Cl)cc2)C1 [Venetoclax] (first compound max 1 µM, 7x7, partner max 1 µM) was run?
Its Bliss excess is -0.0682.

And the Bliss excess [2]?
Its Bliss excess is 0.0114.

What about the Bliss excess [3] of the same compound?
The Bliss excess was -0.0347.

What about the Bliss excess [4] of the same compound?
Its Bliss excess is 0.0479.

What about the Bliss excess [5] of the same compound?
Its Bliss excess is -0.0456.

And the Bliss excess [6]?
The Bliss excess was -0.0435.

And the Bliss excess [7]?
The Bliss excess was -0.0392.

What about the Bliss excess [8] of the same compound?
The Bliss excess was 0.0042.

And the Bliss excess [9]?
Its Bliss excess is -0.0705.

And the Bliss excess [10]?
Its Bliss excess is -0.0648.

And the Bliss excess (ES-2 (Ovarian Carcinoma))?
The Bliss excess was -0.0677.

What about the Bliss excess [11] of the same compound?
Its Bliss excess is -0.085.

And the Bliss excess [12]?
The Bliss excess was -0.0256.

And the Bliss excess [13]?
The Bliss excess was -0.0195.

What about the Bliss excess (CHL-1 (Melanoma)) of the same compound?
The Bliss excess was -0.0297.

What about the Bliss excess [14] of the same compound?
The Bliss excess was -0.0263.

What about the Bliss excess [15] of the same compound?
Its Bliss excess is -0.0536.

And the “combination Emax” value [16]?
The value was 0.71.

What about the “combination Emax” value [17] of the same compound?
Its value is 0.82.

For `COc1nnc2ccc(N3CCC(c4ccc(OCCN5CCN(C)C(=O)[C@H]5C)cc4)CC3)nn12` [AZD5153] + CCN(CCO)CCCOc1ccc2c(Nc3cc(CC(=O)Nc4cccc(F)c4)[nH]n3)ncnc2c1 [AZD2811] (first compound max 1 µM, 7x7, partner max 1 µM), which Bliss excess [1] is on record?
Its Bliss excess is -0.0423.

What about the Bliss excess [2] of the same compound?
Its Bliss excess is -0.0282.

And the Bliss excess [3]?
The Bliss excess was -0.0375.

And the Bliss excess [4]?
Its Bliss excess is -0.0571.

What about the Bliss excess [5] of the same compound?
Its Bliss excess is -0.0479.

What about the Bliss excess [6] of the same compound?
Its Bliss excess is 0.0152.

And the Bliss excess [7]?
The Bliss excess was -0.112.

And the Bliss excess [8]?
Its Bliss excess is -0.0701.

And the Bliss excess [9]?
The Bliss excess was -0.0767.

And the Bliss excess [10]?
The Bliss excess was -0.05.

What about the Bliss excess (ES-2 (Ovarian Carcinoma)) of the same compound?
The Bliss excess was 0.0089.

What about the Bliss excess [11] of the same compound?
Its Bliss excess is -0.0226.

And the Bliss excess [12]?
Its Bliss excess is -0.0292.

And the Bliss excess [13]?
Its Bliss excess is -0.0201.

What about the Bliss excess (CHL-1 (Melanoma)) of the same compound?
Its Bliss excess is 0.0413.

What about the Bliss excess [14] of the same compound?
The Bliss excess was -0.0809.

And the Bliss excess [15]?
Its Bliss excess is 0.109.

And the “combination Emax” value [16]?
The value was 0.726.

And the “combination Emax” value [17]?
Its value is 0.892.

What does the source list for `COc1nnc2ccc(N3CCC(c4ccc(OCCN5CCN(C)C(=O)[C@H]5C)cc4)CC3)nn12` [AZD5153] + CN(CC[C@H](CSC1=CC=CC=C1)NC2=C(C=C(C=C2)S(=O)(=O)NC(=O)C3=CC=C(C=C3)N4CCC(CC4)[C@H](C5=CC=CC=C5C6=CC=C(C=C6)Cl)O)S(=O)(=O)C(F)(F)F)CCO [AZD4320] (first compound max 1 µM, 7x7, partner max 1 µM)?
Bliss excess [1]: 0.0926; Bliss excess [2]: 0.0299; Bliss excess [3]: 0.0161; Bliss excess [7]: 0.002; Bliss excess [10]: 0.0859; Bliss excess (ES-2 (Ovarian Carcinoma)): 0.0277; Bliss excess [12]: 0.0585; Bliss excess [15]: 0.0517; combination Emax [16]: 0.974

How did the Bliss excess [1] turn out when `COc1nnc2ccc(N3CCC(c4ccc(OCCN5CCN(C)C(=O)[C@H]5C)cc4)CC3)nn12` [AZD5153] + C[C@@H]1COCCN1C2=NC(=NC(=C2)C3(CC3)[S@](=N)(=O)C)C4=C5C=CNC5=NC=C4 [AZD6738] (first compound max 1 µM, 7x7, partner max 10 µM) was run?
The Bliss excess was 0.0999.

What about the Bliss excess [2] of the same compound?
Its Bliss excess is 0.0158.

And the Bliss excess [3]?
Its Bliss excess is -0.0311.

What about the Bliss excess [4] of the same compound?
The Bliss excess was -0.0011.

And the Bliss excess [5]?
Its Bliss excess is -0.0261.

What about the Bliss excess [6] of the same compound?
Its Bliss excess is -0.0231.

And the Bliss excess [7]?
Its Bliss excess is 0.0289.

And the Bliss excess [8]?
Its Bliss excess is -0.104.

And the Bliss excess [9]?
The Bliss excess was -0.042.

What about the Bliss excess [10] of the same compound?
The Bliss excess was -0.0187.

What about the Bliss excess (ES-2 (Ovarian Carcinoma)) of the same compound?
The Bliss excess was 0.0316.

And the Bliss excess [11]?
The Bliss excess was -0.0249.

And the Bliss excess [12]?
The Bliss excess was 0.0386.

What about the Bliss excess [13] of the same compound?
Its Bliss excess is -0.0373.

What about the Bliss excess (CHL-1 (Melanoma)) of the same compound?
Its Bliss excess is -0.0569.

What about the Bliss excess [14] of the same compound?
Its Bliss excess is -0.0366.

What about the Bliss excess [15] of the same compound?
Its Bliss excess is 0.0588.

What about the “combination Emax” value [16] of the same compound?
The value was 0.942.

What about the “combination Emax” value [17] of the same compound?
Its value is 0.97.
